Experimental data published in patent US20230301973A1, “TREATMENT OF DIFFUSE INTRINSIC PONTINE GLIOMA” (priority 2016, published 2023).
Like-named read-outs stand apart in the source and are kept apart here.

Key:
[1] = cited from earlier work; for MTD: clinical
primary DIPG cell lines = test: Effect on primary DIPG cell lines / primary tumor astrocytes; assay type: cell-based
Description: Maternal embryonic leucine zipper kinase (MELK) is a serine/threonine kinase implicated in many cellular processes involved in embryogenesis and oncogenesis. Overexpression of MELK is a common feature of diffuse intrinsic pontine glioma (DIPG) and related to tumor grade.

normal astrocytes = test: Effect on normal astrocytes; assay type: cell-based; conditions: 10 nanomolar
[2] = Transport over the blood-brain barrier, brain-to-plasma ratio; assay type: in vivo, mouse

Pembrolizumab
MTD [1]: Not reached up to 10 mg/kg q2w

Cc1cccc(-c2nn3c(c2-c2ccnc4ccc(C(N)=O)cc24)CCC3)n1 [Galunisertib]
MTD ([1]; result in words): Not able to determine MTD due to potential cardiovascular DLT

C[C@@H](Oc1cc(-c2cnn(C3CCNCC3)c2)cnc1N)c1c(Cl)ccc(F)c1Cl [Crizotinib]
MTD [1]: 250 mg twice a day

CS(=O)(=O)c1ccc(C(=O)Nc2ccc(Cl)c(-c3ccccn3)c2)c(Cl)c1 [Vismodegib]
MTD [1]: Not reached up to 540 mg/d

CCN(CCCOc1ccc2c(Nc3cc(CC(=O)Nc4cccc(F)c4)n[nH]3)ncnc2c1)CCOP(=O)(O)O [AZD1152]
MTB ([1]; clinical evaluation, dependent on the dosing schedule): 200 to 450 mg

CC[C@H](Nc1ncnc2[nH]cnc12)c1nc2cccc(F)c2c(=O)n1-c1ccccc1 [Idelalisib]
MTD [1]: Not reached up to 350 mg twice a day

CC(=O)c1cnc2ccc(-c3cc(Cl)c(O)c(Cl)c3)nc2c1NC1CCC(CN(C)C)CC1 (stereo not shown) [OTS167, 1-[6-(3,5-Dichloro-4-hydroxyphenyl)-4-({4-[(dimethylamino)methyl]cyclohexyl}amino)-1,5-naphthyridin-3-yl]ethanone]
Toxicity / apoptosis on primary tumor astrocytes (primary DIPG cell lines; 10 nM, most DIPG tumor cell lines): toxic and induces apoptosis
Cell death in primary DIPG cell lines (primary DIPG cell lines; low nanomolar concentrations): induces cell death
Migration of primary DIPG cell lines (primary DIPG cell lines; low nanomolar concentrations): effectively inhibits migration
Proliferation of primary DIPG cell lines (primary DIPG cell lines; low nanomolar concentrations): reduces proliferation
Apoptosis in non-somatic (normal) cells (normal astrocytes): no apoptosis occurs
Growth of normal astrocytes (normal astrocytes): only slightly slows down the growth
Factor of increase of concentration in brain tissue ([2]; co-administering a P-glycoprotein1 / Abcb1a inhibitor): ≥ 4
Kp ([2]; mouse, brain and plasma, mouse models (wild type), passive transport, read-out: Brain-to-plasma (B/P) ratio): 0.02
Absolute concentration reached in the brain ([2]; with pharmaceutically acceptable toxic adverse effects): about 10 nanomolar

Nc1ncn([C@H]2C[C@H](O)[C@@H](CO)O2)c(=O)n1 [Decitabine]
MTD ([1]; over 1-3 days): 1,500-2,000/mg/m^2 over 1-3 days
